# Publication PMC3039446 (Cancer research, 2010)
# Entries after “also recorded” stand apart in the source; their conditions may differ. Like-named read-outs stand apart in the source and are kept apart here. Marks after values point to notes of the source that are not given here.
# Legend:
# [1] = system: PC-3; test: SRB cytotoxicity assay, PC-3; format: cell-based, human
# [2] = system: Bovine brain tubulin; test: In vitro microtubule; format: biochemical; settings: 10 μM compound, absorbance 340 nm, 15 min
# [3] = system: NCI/ADR-RES; test: SRB cytotoxicity assay, NCI/ADR-RES; format: cell-based, human
# [4] = system: PC-3 and A375 cells; test: Apoptosis detection by ELISA; format: cell-based, human; settings: 24 h treatment
# [5] = system: PC-3 prostate tumor xenograft; settings: for %T/C values (range): both PC-3 and A375 xenograft models, doses 5 to 20 mg/kg
# [6] = system: Du-145; test: SRB cytotoxicity assay, Du-145; format: cell-based, human
# [7] = system: prostate cancer and melanoma cell lines; test: SRB antiproliferative assay, ranges over the cell line panel; format: cell-based, human; settings: read-out: IC50 (range over cell lines), Table 1 cell lines
# [8] = system: A375; test: SRB cytotoxicity assay, A375; format: cell-based, human
# [9] = system: B16-F1; test: SRB cytotoxicity assay, B16-F1; format: cell-based
# [10] = system: OVCAR-8; test: SRB cytotoxicity assay, OVCAR-8; format: cell-based, human
# [11] = system: LNCaP; test: SRB cytotoxicity assay, LNCaP; format: cell-based, human; settings: read-out: IC50 ± SEM
# [12] = system: PPC-1; test: SRB cytotoxicity assay, PPC-1; format: cell-based, human
# [13] = system: ICR mice; test: Rotarod test
# [14] = system: Du-145; settings: read-out: IC50 ± SEM; Du-145 prostate, SRB; previously reported ref 11; cited from earlier work
# [15] = system: PC-3 cells; format: cell-based, human
# [16] = system: B16-F1; settings: read-out: IC50 ± SEM; B16-F1 melanoma, SRB; previously reported ref 11; cited from earlier work
# [17] = system: LNCaP; settings: read-out: IC50 ± SEM; LNCaP prostate, SRB; previously reported ref 11; cited from earlier work
# [18] = system: A375; settings: read-out: IC50 ± SEM; A375 melanoma, SRB; previously reported ref 11; cited from earlier work
# [19] = system: PPC-1; settings: read-out: IC50 ± SEM; PPC-1 prostate, SRB; previously reported ref 11; cited from earlier work
# [20] = system: tubulin; test: MS competitive binding assay on tubulin binding sites
# [21] = cited from earlier work
# [22] = mice, 15 mg/kg i.v.; ref C. M. Li et al, in press; cited from earlier work
# [23] = system: PC-3; settings: read-out: IC50 ± SEM; PC-3 prostate, SRB; previously reported ref 11; cited from earlier work
# [24] = system: ICR mice; settings: mouse, 15 mg/kg
# [25] = system: A375 melanoma xenograft; settings: 34 days; for % T/C: A375 melanoma xenograft; for Tumor volume at end of treatment: A375 xenograft, control 2183 ± 279
# [26] = system: ICR mice; test: Acute toxicity study in ICR mice; format: in vivo; settings: 4 consecutive days of intraperitoneal dosing
# [27] = Pharmacokinetic study in ICR mice, i.v.; settings: 15 mg/kg i.v.
# [28] = Pharmacokinetic study in Sprague-Dawley rats, i.v.; settings: 2.5 mg/kg i.v.
# [29] = rat, in vivo, iv, 2.5 mg/kg
# [30] = read-out: IC50 ± SEM, OVCAR-8 ovarian (parent), SRB, n = 3
# [31] = Homo sapiens, PPC-1, read-out: IC50 ± SEM
# [32] = PC-3 xenograft, 5 mg/kg, start 150 mm^3, control 680 ± 198
# [33] = PC-3 xenograft, 15 mg/kg, start 150 mm^3, control 680 ± 198
smiles,measurement,setting,value
COc1cc(C(=O)c2csc(-c3ccc(O)cc3)n2)cc(OC)c1OC [SMART-OH],IC50,"[1]; read-out: IC50 ± SEM, PC-3 prostate, SRB, n = 3",87 ± 5 nM
same,Inhibition of tubulin polymerization,[2],55%
same,Resistance Factor,[3]; NCI/ADR-RES relative to OVCAR-8,0.4
same,IC50,"[3]; read-out: IC50 ± SEM, NCI/ADR-RES ovarian (P-gp over-expressing), SRB, n = 3",45 ± 5 nM
same,Concentration inducing apoptosis (cytoplasmic DNA-histone complexes),[4],≥ 200 nM
same,Potency relative to SMART-H (fold less),"[5]; PC-3 xenograft model, SMART-OH at higher dosage",10 fold
same,Tumor volume at day 21,"[5]; PC-3 xenograft, 50 mg/kg, start 150 mm^3, control 680 ± 198",331 ± 130 mm^3
same,IC50,"[6]; read-out: IC50 ± SEM, Du-145 prostate, SRB, n = 3",116 ± 14 nM
same,IC50,[7],76 to 116 nM
same,IC50,"[8]; read-out: IC50 ± SEM, A375 melanoma, SRB, n = 3",93 ± 11 nM
same,IC50,"[9]; read-out: IC50 ± SEM, B16-F1 melanoma, SRB, n = 3",113 ± 6 nM
same,IC50,[10]; [30],110 ± 8 nM
same,IC50,"[11]; LNCaP prostate, SRB, n = 3",103 ± 9 nM
same,IC50,"[12]; read-out: IC50 ± SEM, PPC-1 prostate, SRB, n = 3",76 ± 2 nM
CC(=O)O[C@H]1C(=O)[C@@]2(C)[C@H]([C@H](OC(=O)c3ccccc3)[C@]3(O)C[C@H](OC(=O)[C@H](O)[C@@H](NC(=O)c4ccccc4)c4ccccc4)C(C)=C1C3(C)C)[C@]1(OC(C)=O)CO[C@@H]1C[C@@H]2O [Paclitaxel],IC50,"[10]; Homo sapiens, OVCAR-8, read-out: IC50 ± SEM",4.7 ± 0.1 nM
same,IC50,[12]; [31],2.3 ± 0.8 nM
CC[C@]1(O)C[C@@H]2CN(CCc3c([nH]c4ccccc34)[C@@](C(=O)OC)(c3cc4c(cc3OC)N(C)[C@H]3[C@@](O)(C(=O)OC)[C@H](OC(C)=O)[C@]5(CC)C=CCN6CC[C@]43[C@@H]65)C2)C1 [Vinblastine],IC50,"[1]; Homo sapiens, PC-3, read-out: IC50 ± SEM",2.1 ± 0.2 nM
same,IC50,"[6]; Homo sapiens, DU-145, read-out: IC50 ± SEM",1.8 ± 1.1 nM
same,Rotarod performance (time on rotating rod) vs vehicle,"[13]; 0.5 mg/kg i.p. daily, to day 31, 0.5 mg/kg","gradually reduced the time (in seconds) that the mice could stay on the rotating rod, and attained significance by days 27 and 31; also recorded: lesser ability to stay on the rotating rod"
same,Rotarod post-observation after treatment stopped,[13]; 4 weeks after drug treatment was stopped,failed to return to baseline
same,IC50,"[8]; Homo sapiens, A-375, read-out: IC50 ± SEM",1.1 ± 0.2 nM
same,IC50,"[9]; Mus musculus, B16-F1, read-out: IC50 ± SEM",4.7 ± 0.7 nM
same,IC50,"[11]; Homo sapiens, LNCaP",1.1 ± 0.1 nM
same,IC50,[12]; [31],1.1 ± 0.4 nM
COc1cc(C(=O)c2csc(-c3ccccc3)n2)cc(OC)c1OC [SMART-H],Inhibition of tubulin polymerization,[2],90%
same,IC50,[14],71 ± 4 nM
same,IC50,[15]; PC-3 cells from ATCC (in vitro control),29.1 ± 1.1 nM
same,IC50,"[15]; dissociated cells from SMART-H (15 mg/kg, 21 days) treated PC-3 tumors",30.4 ± 0.5 nM
same,IC50,"[15]; dissociated cells from vehicle treated PC-3 tumors, 21 days",29.1 ± 0.8 nM
same,IC50,[16],55 ± 5 nM
same,IC50,[17],28 ± 4 nM
same,Tumor volume by day 21,[5]; [32],370 ± 103 mm^3
same,Tumor volume by day 21,[5]; [33],176 ± 112 mm^3
same,%T/C values (range),[5],4–30%
same,IC50,[18],28 ± 5 nM
same,IC50,[19],43 ± 5 nM
same,Rotarod performance (time on rotating rod) vs vehicle,"[13]; 5 or 15 mg/kg i.p. daily, to day 31",no significant difference; also recorded: did not show significant impairment in motor coordination
same,Competition with colchicine binding to tubulin,[20],specifically competed with colchicine binding to tubulin
same,Competition with paclitaxel binding to tubulin,[20],did not compete
same,Competition with vinblastine binding to tubulin,[20],did not compete
same,AUC,"[21]; rat, in vivo, iv, 2.5 mg/kg",5.8 ^a hr * μg/mL
same,CL,"[21]; rat, in vivo, iv, 2.5 mg/kg",6 ^a mL/min/kg
same,Vss,"[21]; rat, in vivo, iv, 2.5 mg/kg",7.6 ^a L/kg
same,t1/2,"[21]; rats, 2.5 mg/kg i.v., ref C. M. Li et al, in press",1431 ^a min
same,t1/2,[22],140 ^a min
same,IC50,[23],21 ± 1 nM
same,Neurotoxicity in vivo,[24],failed to produce any apparent neurotoxicity
same,IC50,[10]; [30],35 ± 2 nM
same,% T/C,"[25]; 20 mg/kg i.p. daily, 20 mg/kg",28%
same,Tumor volume at end of treatment,[25]; 20 mg/kg,775 ± 107 mm^3
same,Doses that did not cause greater than 10% loss of body weight,[26],up to 30 mg/kg
COc1cc(C(=O)c2csc(-c3ccc(F)cc3)n2)cc(OC)c1OC [SMART-F],Inhibition of tubulin polymerization,[2],90%
same,t1/2,[27],2.35 h
same,IC50,[16],43 ± 21 nM
same,IC50,[17],6 ± 1 nM
same,Tumor volume by day 21,[5]; [32],269 ± 177 mm^3
same,Tumor volume by day 21,[5]; [33],292 ± 103 mm^3
same,%T/C values (range),[5],4–30%
same,IC50,[18],33 ± 14 nM
same,IC50,[23],13 ± 1 nM
same,t1/2,[28],40.17 h
same,IC50,[10]; [30],34 ± 3 nM
same,AUC,[29],1600 ng·h/mL
same,CL,[29],11 mL/min/kg
same,Vss,[29],34 L/kg
same,% T/C,"[25]; 15 mg/kg i.p. daily, 15 mg/kg",29%
same,Tumor volume at end of treatment,[25]; 15 mg/kg,722 ± 135 mm^3
same,Doses that did not cause greater than 10% loss of body weight,[26],≤ 15 mg/kg
